Measurements reported in patent US20240180838A1, “NANOPARTICLE (NP) COMPOSITIONS AND METHODS OF USE THEREOF” (RUTGERS, THE STATE UNIVERSITY OF NEW JERSEY, priority 2022, published 2024).
In brackets after ≈: the same amount, converted by molar mass.

Tests used:
S. aureus = conditions: as reported in the literature; cited from earlier work
[1] = Thermogravimetric analysis, thermal stability; type: physicochemical; conditions: TG curve
Experimental: The amount of RFX loaded in DAMO/SBA is carefully determined by comparing the thermogravimetric (TG) traces of RFX/SBA and its parent material (DAMO-SBA), after normalizing the weight losses of the two curves at 100° C. (i.e., the temperature at which physisorbed water should be completely evaporated) (FIGS. 4A-4B). The comparison is done at 750° C., after most organic groups are removed from the samples. […] The decomposition profiles for pure RFX and copper(II) acetate, which is the salt used to immobilize Cu(II) ions into the material. As expected, RFX completely decomposes after 500° C. as it comprises mostly organic groups.

SMILES | Minimum inhibitory concentrations (MICs) (S. aureus) | onset temperature of degradation [1]
CC[C@H]1OC(=O)[C@H](C)[C@@H](O[C@H]2C[C@@](C)(OC)[C@@H](O)[C@H](C)O2)[C@H](C)[C@@H](O[C@@H]2O[C@H](C)C[C@H](N(C)C)[C@H]2O)[C@](C)(O)C[C@@H](C)C(=O)[C@H](C)[C@@H](O)[C@]1(C)O [ERM, erythromycin] | 32 µg/mL (≈ 43.6 µM) | 
O=C(Nc1ccc(Oc2ccc(Cl)cc2)c(Cl)c1)c1cc(I)cc(I)c1O [RFX, N-[3-Chloro-4-(4-chlorophenoxy)phenyl]-2-hydroxy-3,5-diiodobenzamide] |  | 200 °C
COc1cc(Cc2cnc(N)nc2N)cc(OC)c1OC [TRM, trimethoprim] | 0.19 µg/mL (≈ 0.654 µM) | 
